Legend:
S. aureus DSM 20231 [1] = experiment: fitness (endpoint OD595 vs no drug) (fraction); higher = more growth
Procedure, shortened: (§1)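 At 37 °C, bacteria in TSB, LB Lennox or CY were grown in 384-well plates from a starting OD595 of 0.01. OD595 was measured every 30 min for 14 h, with the first reading used as background. Fitness is the optical density at the switch to stationary phase as a fraction of the robust mean of no-drug control wells, capped at 1.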

S. aureus Newman [2] = experiment: as above
Procedure, shortened: as §1

S. pneumoniae D39V [3] = experiment: as above
Procedure, shortened: as §1

B. subtilis 168 = experiment: Bliss interaction score (quartile over a dose matrix) (fitness difference); higher = more antagonism (negative = synergy)
Procedure, shortened: (§2)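 Growth was read as OD595 when cultures entered stationary phase, and each value was divided by the plate's robust no-drug mean and capped at 1. This normalised ratio is the fitness value, and fitness for each single drug came from the combination data. The Bliss score subtracts the expected fitness, taken as the product, from the observed fitness and is given as quartiles across technical, biological and donor/recipient replicates.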

S. aureus DSM 20231 [4] = experiment: as above
Procedure, shortened: as §2

S. aureus Newman [5] = experiment: as above
Procedure, shortened: as §2

S. pneumoniae D39V [6] = experiment: as above
Procedure, shortened: as §2
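Wherever Bliss interaction score (quartile over a dose matrix) is given: first quartile when negative (synergy) and third quartile when positive (antagonism).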
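Wherever fitness (endpoint OD595 vs no drug) is given: OD595 on entry to stationary phase over no-drug wells; at most 1.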

CC1(C)S[C@@H]2[C@H](NC(=O)[C@H](N)c3ccc(O)cc3)C(=O)N2[C@H]1C(=O)O [Amoxicillin] + COc1c(N2C[C@@H]3CCCN[C@@H]3C2)c(F)cc2c(=O)c(C(=O)O)cn(C3CC3)c12 [Moxifloxacin]
Details	fitness
S. aureus DSM 20231 [1], first compound 0.0625 µg/mL, partner 0.0075 µg/mL	0.51
S. aureus DSM 20231 [1], first compound 0.0625 µg/mL, partner 0.015 µg/mL	0.482
S. aureus DSM 20231 [1], first compound 0.0625 µg/mL, partner 0.03 µg/mL	0.403
S. aureus DSM 20231 [1], first compound 0.125 µg/mL, partner 0.0075 µg/mL	0.382
S. aureus DSM 20231 [1], first compound 0.125 µg/mL, partner 0.015 µg/mL	0.374
S. aureus DSM 20231 [1], first compound 0.125 µg/mL, partner 0.03 µg/mL	0.203
S. aureus DSM 20231 [1], first compound 0.25 µg/mL, partner 0.0075 µg/mL	0.152
S. aureus DSM 20231 [1], first compound 0.25 µg/mL, partner 0.015 µg/mL	0.119
S. aureus DSM 20231 [1], first compound 0.25 µg/mL, partner 0.03 µg/mL	0.034
S. aureus DSM 20231 [1], first compound 0.5 µg/mL, partner 0.0075 µg/mL	0.0102
S. aureus DSM 20231 [1], first compound 0.5 µg/mL, partner 0.015 µg/mL	0.0002
S. aureus DSM 20231 [1], first compound 0.5 µg/mL, partner 0.03 µg/mL	0.0026
S. aureus Newman [2], first compound 0.0625 µg/mL, partner 0.0075 µg/mL	0.715
S. aureus Newman [2], first compound 0.0625 µg/mL, partner 0.015 µg/mL	0.609
S. aureus Newman [2], first compound 0.125 µg/mL, partner 0.0075 µg/mL	0.705
S. pneumoniae D39V [3], first compound 0.0008 µg/mL, partner 0.005 µg/mL	0.968
S. pneumoniae D39V [3], first compound 0.0008 µg/mL, partner 0.01 µg/mL	0.977
S. pneumoniae D39V [3], first compound 0.0008 µg/mL, partner 0.02 µg/mL	0.913
S. pneumoniae D39V [3], first compound 0.0015 µg/mL, partner 0.005 µg/mL	0.972
S. pneumoniae D39V [3], first compound 0.0015 µg/mL, partner 0.01 µg/mL	0.967
S. pneumoniae D39V [3], first compound 0.0015 µg/mL, partner 0.02 µg/mL	0.905
S. pneumoniae D39V [3], first compound 0.0015 µg/mL, partner 0.0312 µg/mL	0.314
S. pneumoniae D39V [3], first compound 0.0015 µg/mL, partner 0.0625 µg/mL	0.147
S. pneumoniae D39V [3], first compound 0.0015 µg/mL, partner 0.125 µg/mL	0.0837
S. pneumoniae D39V [3], first compound 0.003 µg/mL, partner 0.005 µg/mL	0.92
S. pneumoniae D39V [3], first compound 0.003 µg/mL, partner 0.01 µg/mL	0.92
S. pneumoniae D39V [3], first compound 0.003 µg/mL, partner 0.02 µg/mL	0.901
S. pneumoniae D39V [3], first compound 0.003 µg/mL, partner 0.0312 µg/mL	0.277
S. pneumoniae D39V [3], first compound 0.003 µg/mL, partner 0.0625 µg/mL	0.211
S. pneumoniae D39V [3], first compound 0.003 µg/mL, partner 0.125 µg/mL	0.0689

one replicate
Details	fitness
S. aureus DSM 20231 [1], first compound 0.125 µg/mL, partner 0.06 µg/mL	0.388
S. aureus DSM 20231 [1], first compound 0.125 µg/mL, partner 0.12 µg/mL	0.0813
S. aureus DSM 20231 [1], first compound 0.25 µg/mL, partner 0.06 µg/mL	0.112
S. aureus DSM 20231 [1], first compound 0.25 µg/mL, partner 0.12 µg/mL	0.0126
S. aureus DSM 20231 [1], first compound 0.5 µg/mL, partner 0.06 µg/mL	0.0085
S. aureus DSM 20231 [1], first compound 0.5 µg/mL, partner 0.12 µg/mL	0.0156
S. pneumoniae D39V [3], first compound 0.0008 µg/mL, partner 0.0312 µg/mL	0.209
S. pneumoniae D39V [3], first compound 0.0008 µg/mL, partner 0.0625 µg/mL	0.167
S. pneumoniae D39V [3], first compound 0.0008 µg/mL, partner 0.125 µg/mL	0.103
S. pneumoniae D39V [3], first compound 0.006 µg/mL, partner 0.0312 µg/mL	0.0891
S. pneumoniae D39V [3], first compound 0.006 µg/mL, partner 0.0625 µg/mL	0.0684
S. pneumoniae D39V [3], first compound 0.006 µg/mL, partner 0.125 µg/mL	0.0138

Details	Bliss interaction score
B. subtilis 168	0.0481
S. aureus DSM 20231 [4]	-0.0301
S. aureus Newman [5]	0.046
S. pneumoniae D39V [6]	0.0639

From the supplement of paper PMC10627819
